Results on 16 molecules are retold here after patent US7981623B2, “Repressor of skeletal muscle differentiation, nucleic acids coding therefor and the use thereof in diagnosis and therapy” (Universitaetsklinikum Freiburg, priority 2002, dated 2011).

Entries after “also recorded” stand apart in the source; their conditions may differ.

The subject of assay [1] is Gal4-RE-controlled complex and synthetic minimal reporter constructs. Kind of assay: Gal4-DBD fusion repression, transient transfection luciferase reporter. The class given is cell-based. The settings on record: for effect of HDAC inhibitor on Gal-GRIM1 repression: trichostatin A 300 nM, sodium butyrate 5 mM; for transcriptional repression: Gal4-DBD context, all reporter systems described; for repression potential as Gal4-DBD fusion (in words): transient transfections. The text has this:
To determine the transcriptional properties of hsGRIM1 proteins in eukaryotic cells, pCMX-hsGRIM1 expression plasmids were cotransfected with luciferase (LUC) reporter plasmids. Expression of the particular hsGRIM1 protein in a pCMX expression plasmid is under the control of the cytomegalovirus promoter. Luciferase expression in the LUC reporter plasmids used is controlled either by the thymidine kinase (TK) promoter, an E1b minimal promoter (TATA box), or by the respectively indicated complex promoters.
Transfection takes place by the calcium phosphate method or by the DOTAP liposomes method (Roche Diagnostics, product information). Unless otherwise indicated, 10^5 cells/well were seeded in 1 ml of culture medium in 12-well dishes. In the CaPO4 method, the plasmid DNA to be transfected is coprecipitated with calcium phosphate, and the precipitate is distributed to the cells capable of division. The calcium phosphate precipitate is prepared by preparing the mixture indicated below for duplicates in 12-well dishes:
While agitating (vortexing), 80 μl of 2xBES buffer are slowly and uniformly added dropwise to this mixture. The precipitate is incubated at RT for 10 min and distributed uniformly to the cells (80 μl per well) and, after 8 hours, removed by washing with PBS. The cells are incubated in fresh culture medium for a further 18 to 24 h. • BES buffer (2×): 50 mM N,N-bis[2hydroxyethyl]-2-aminoethanesulfonic acid; 280 mM NaCl; 1.5 mM Na2HPO4.2H2O; pH 6.95
Transiently transfected cells are washed once with PBS and lyzed by adding 50 μl of reporter lysis buffer (Promega) and further disrupted by freezing at −80° C. Cell lysates are transferred into Eppendorf reaction vessels, and cell detritus is pelleted at 14 000 rpm for 2′. 10 μl portions of the lysates are pipetted into 96-well microtiter plates to determine the luciferase activity. The luciferase assay took place in an EG&G Berthold Microluminomat. 40 μl of luciferase assay buffer are injected into the 10 μl of cell lysate, and the resulting chemiluminescence is determined in a time integral of 10″. The measured values for the luciferase activity are related to the amount of protein present in the cell lysate. For this purpose, 3 μl portions of the lysates are mixed in 96-well microtiter plates with 100 μl of Bradford assay reagent (BioRad) diluted 1:5 with H2O, and the absorption of the solution is determined at 595 nm. Relative luciferase activities are found from the ratio of the luciferase activity to the protein absorption. • Luciferase assay buffer: 200 mM tricine; 1.07 mM (MgCO3).4Mg(OH)2; 0.1 M MgSO4, 10 mM EDTA (pH 8.0); 33 mM DTT; […]; […] acetyl-coenzyme A; […] glowworm luciferin.
All the described data were obtained with the hsGRIM1 clone. […] Gal-GRIM1 represses expression of reporter genes both of Gal4-RE-controlled complex and synthetic minimal reporter constructs. The repression potential of GRIM1 is distinctly greater for example compared with the corepressor Gal-SuN-CoR. In these experiments, the appropriate corepressors are transiently expressed as heterologous Gal4-DBD fusion proteins in cells. The repression capacity on various synthetic promoter-reporter constructs compared with equal quantities of transfected wild-type Gal4-DBD is determined by luciferase reporter gene expression (FIG. 8).
Gal-GRIM1 is equally strong as a repressor as a large number of described corepressors such as, for example, Gal-HDAC1-10, Gal-CBF1, Gal-Alien and represses only insignificantly weaker than Gal-N-CoR-RD or Gal-SMRT-RD. The repression potential of Gal-GRIM1 was investigated in conjunction with the complex Gal43x-tk-LUC and Gal-MMTV-LUC promoter/reporter constructs and in conjunction with the minimal promoter/reporter constructs Gal5x-E1b-TATA-box and Gal3x-βglobin-TATA-LUC. […]

In assay [2] the test system is differentiating C2C12 skeletal muscle cells. Kind of assay: GRIM1 relocalization in differentiating C2C12 cells under signal pathway inhibitors. The settings on record: day 0 to day 6 in differentiation medium; Gö6850 1 μM, LY294002 10 μM, Ro31-8220 0.5 μM, PD98059 10 μM, fasudil 10 μM. It is filed as cell-based, mouse. Here is the method: The cells were cultured in the media recommended by the ATCC on 15 cm cell culture dishes under sterile conditions. Cells are subcultured in a ratio of 1:5 to 1:20 every two to three days and kept at a maximum of 60% confluence. Old medium is removed, and the cells are washed with PBS buffer and treated with trypsin/EDTA solution (0.25% trypsin, 0.04% EDTA in PBS buffer) until they are detached from the culture dish. The cells are isolated in fresh medium and subcultured on new subculture dishes. • PBS buffer: 137 mM NaCl; 2.7 mM KCl; 8 mM Na2HPO4; 1.8 mM KH2PO4 • Media used: DMEM (Gibco BRL), 100 IU penicillin G/ml, 100 μg/ml streptomycin, 2 mM glutamine, 10% fetal calf serum. As differentiation medium for C2C12 and L6 cells, 10% FCS was replaced by 2% horse serum.
Cells are seeded in the desired cell density on autoclaved slides and fixed on the support with 5% paraformaldehyde for 10′. Cell membranes are made permeable for antibodies by incubation in 0.2% TritonX100 for 10′. Before the incubation with the primary antibodies, the cells are blocked in 0.2% gelatin (in PBS) at RT for 1 h. Anti-hsGRIM1 antibodies are diluted 1:500 in 0.2% strength gelatin solution and incubated at RT for 1 h. After washing three times with PBS for 5′ each time, the respective fluorochrome-coupled secondary antibody is added 1:2000 in 0.2% gelatin solution and incubated in the dark at RT for 30′. After the washing steps, the nucleus is counterstained with DAPI (1 μg/ml PBS, Roche Diagnostics) and the cells are finally washed twice in 0.1% TritonX100 in order to minimize autofluorescences. The slides are preserved in Fluoromount M (Southern Biotechnology Associates) and analyzed using a fluorescence microscope.
Treatment of differentiating C2C12 skeletal muscle cells with various inhibitors of central signal transduction pathways have no effect on relocalization or the number of nuclear speckles of GRIM1 within the investigated differentiation from day 0 to day 6 after addition of the differentiation medium. Tested inhibitors: pan-HDAC inhibitors TSA and sodium butyrate, protein kinase inhibitors Gö6850 (specific PKC inhibitor, 1 μM), LY294002 (specific P13kinase inhibitor, 10 μM), Ro31-8220 (PKC broad-spectrum inhibitor, 0.5 μM), PD98059 (MEK1 inhibitor, 10 μM), fasudil (Rock kinase inhibitor, 10 μM), SB203580 (p38α/β inhibitor). Overacetylation and blockade of central signal cascades had drastic morphologically visible consequences for some of the cells, but there was no effect on relocalization or the number of detectable GRIM1 speckles.

Assay [3] relates to androgen receptor (hsAR). Kind of assay: GRIM1-AR protein-protein interaction (pulldown, co-IP, yTHS). The class given is binding, human.
Experimental: Further functional characterization of the interaction domains within GRIM1 was carried out by pulldown analyses with the expressible fragments of GRIM1.
Assay [4] concerns nuclear export of GFP-GRIM1 (exportin1/Crm1). In words: Nuclear export of GFP-GRIM1 under leptomycin B. As to conditions: 20 nM for 6 h before cell harvesting. It is filed as cell-based.
Assay [5] has as its system acetylation of core histones by p300. In words: INHAT assay (in vitro acetylation of histones by p300). It is filed as biochemical. The settings on record: core histones H3, H2A, H2B and H4. Here is the method:
INHAT assays were carried out as described by Eckner et al. and by Seo et al. (Eckner et al., 1996, Genes and Development 10 (19), pp 2478-2490, Seo et al., 2001, Cell 104 (1), pp 119-130). Histones or histone mixtures are preincubated with the appropriate peptides in a total of 50 μl of HAT buffer, then mixed with bacterially expressed p300 HAT domains and 0.5 μCi of ^14C-acetyl-coenzyme A, and incubated at 30° C. and 1000 rpm for 2 h. Reactions are stopped by adding SDS Laemmli buffer. Proteins are fractionated in denaturing SDS-PAGE, and the gels are incubated in Amplify (NEN) for 1 h. Acetylations are detected in autoradiographies.
It was possible to show in GST pulldown analyses that the N- and C-terminal fragments of hsGRIM1 can associate directly with histones in vitro.

Assay [6] deals with core histones H4, H2B, H2A and H3. Kind of assay: GST pulldown with core histones. It is filed as binding. The protocol: A protein is expressed as GST fusion protein in E. coli, immobilized on a GST-binding carrier material, and incubated with the potential interactant which is usually radiolabeled. In the subsequent washing steps, proteins which interact only weakly or not at all are washed off the carrier material or the carrier material-bound GST fusion protein. The amount of associated interactant can be determined by fractionation of the proteins by SDS-PAGE and subsequent autoradiography. To check the specificity of interaction between potential interactant and GST fusion protein, the interaction with GST alone is examined.
Aliquots of GST-GRIM1 fragments or GST-containing E. coli crude lysate are mixed in each case with 30 μl of glutathione(GSH)-Sepharose and incubated on a bohemian wheel at 4° C. for 1 h. The GSH-Sepharose is pelleted by centrifugation (1′ at 2000 rpm) and washed twice in pulldown buffer. The pellet is then resuspended in 500 μl of pulldown buffer and incubated with the in vitro translated, […] potential interactant at 4° C. on the bohemian wheel for 1 h. […]

Turning to `CN(C)CCCn1cc(C2=C(c3c[nH]c4ccccc34)C(=O)NC2=O)c2ccccc21` [Gö6850], the “brought about a change in the transcriptional activity of Gal-GRIM1” value in assay [1] (PKC inhibition or activation, various cell lines) is given as “Neither”. In assay [2], the “effect on relocalization or number of nuclear speckles of GRIM1” value (“effect on relocalization or number” for short) is “no effect”.
Turning to `O=c1cc(N2CCOCC2)oc2c(-c3ccccc3)cccc12` [LY294002], in assay [2], the “effect on relocalization or number” value is given as “no effect”.
Regarding `COc1cccc(-c2cc(=O)c3ccccc3o2)c1N` [PD98059], the “effect on relocalization or number” value in assay [2] was “no effect”.
Regarding `Cn1cc(C2=C(c3cn(CCCSC(=N)N)c4ccccc34)C(=O)NC2=O)c2ccccc21` [Ro31-8220], in assay [2], the “effect on relocalization or number” value is reported as “no effect”.
Same read-out and setting: the entry for `C[S+]([O-])c1ccc(-c2nc(-c3ccncc3)c(-c3ccc(F)cc3)[nH]2)cc1` (centres unmarked) [SB203580] is “no effect”; for `O=S(=O)(c1cccc2cnccc12)N1CCCNCC1` [fasudil] it is “no effect”.
As for `CC(C)(O)C(=O)Nc1ccc([N+](=O)[O-])c(C(F)(F)F)c1` [hydroxyflutamide], the “influence of AR antagonist on GRIM1-AR interaction” value in assay [3] is “cannot be influenced”.
Take `CCC(=C/[C@H](C)C/C=C/C(C)=C/[C@@H](C)C(=O)[C@@H](C)[C@H](O)[C@@H](C)C/C(C)=C/C(=O)O)/C=C/[C@@H]1OC(=O)C=C[C@@H]1C` [leptomycin B]: the “effect on nuclear export of GFP-GRIM1 or GFP-GRIM1 aa234-336” value in assay [4] is reported as “not influenced”.
For the molecule `CCCC(=O)[O-].[Na+]` [sodium butyrate], in assay [1], the “effect of HDAC inhibitor on Gal-GRIM1 repression” value is reported as “not impaired”. For the same molecule, in assay [2], the “effect on relocalization or number” value was “no effect”.
For `CC(/C=C/C(=O)NO)=C\[C@@H](C)C(=O)c1ccc(N(C)C)cc1` [trichostatin A], the “effect on general transcription” value in assay [1] (cotransfection of full-length p300 and Gal-GRIM1) is “enhances general transcription”. In addition, in assay [1], the “effect of HDAC inhibitor on Gal-GRIM1 repression” value is “not impaired; also recorded: relative repression by Gal-GRIM1 remains unchanged; also recorded: not influenced”. For the same molecule, the “effect on relocalization or number” value in assay [2] was “no effect”.
For the molecule “GRIM1 aa 3-147: recombinantly expressed N-terminal hsGRIM1 fragment, tag not stated”, the “inhibition of histone acetylation by p300 (INHAT activity)” value in assay [5] is given as “efficiently blocks acetylation”.
GST-E: GST-fused hsGRIM1 aa 3-147: the “interaction with core histones” value in assay [6] is “marked interaction”.
With GST-I: GST-fused hsGRIM1 aa 609-749, in assay [6], the “interaction with core histones” value is listed as “marked interaction”. Further, in assay [3] (GST fragments, in the sequence M≧H>>I), the “interacted with the AR in pulldown” value is on record as “interacted with the AR”.
As for “Gal-E: hsGRIM1 aa 3-147 as Gal4-DBD fusion”, in assay [1], the transcriptional repression is listed as 2 × and the “repression potential as Gal4-DBD fusion (in words)” value is “smallest repressive effect”.
Consider “Gal-I: hsGRIM1 aa 609-749 as Gal4-DBD fusion (Table 8; Table 2 differs)”, for which, in assay [1], the transcriptional repression was 2 × and the “repression potential as Gal4-DBD fusion (in words)” value was “smallest repressive effect”.
With “mmGRIM1: mouse GRIM1, 750 amino acids, Seq. ID No. 4”, the “interaction with hsAR” value in assay [3] (tfIP, utfIP, yTHS, PD and tT) is on record as “strong direct interaction”.
